According to patent publication US10765625B2, “Knottin-drug conjugates and methods of using the same” (THE BOARD OF TRUSTEES OF THE LELAND STANFORD JUNIOR …, priority 2016, dated 2020):
Positions of bridges follow the written chain, without caps; N, C: chain ends. Non-standard residues stand in square brackets, D forms with d. Residues, ends and D or L forms follow the SMILES beside them. Orn(N3) = [N-]=[N+]=NCCC[C@H](N)C(=O)O

Experiments:
U87MG cells [1] = test: Cell proliferation, CCK-8 colorimetric assay; format: cell-based; details: U87MG cells; for Potency / growth inhibition in U87MG cells (in words): 4 d; for EC50: 4 d incubation, vs untreated control, read-out: ED50 (nM), potency
Protocol: (§1) U87MG, and PANC-1 cells were grown in Dulbecco's Modified Eagle Medium (DMEM) with 10% fetal bovine serum (FBS) and 1% penicillin/streptomycin. MDA-MB-468 cells were grown in DMEM and Ham's F-12 medium (DMEM/F12) with 10% FBS and 1% penicillin/streptomycin. A2780 and BxPC3 cells were grown in Roswell Park Memorial Institute medium (RPMI) 1640+L-glutamine, with 10% FBS and 1% penicillin/streptomycin. D270 cells were grown in MEM (Richter's modification, no phenol red) with 10% FBS and 0.1% Gentamicin. Unless otherwise specified, cells were incubated at 37° C., 5% CO2. Flow cytometry was performed using an EMD Millpore Guava EasyCyte 8HT flow cytometer and the resulting data were evaluated using FlowJo software provided by TreeStar, Inc. Cell proliferation was measured using the Dojindo Cell Counting Kit-8 by replacing the media in each well with 100 μL of media containing 10% WST-8. After incubation for 1 h at 37° C., absorbance, A, at 450 nm was measured with a BioTek Synergy H4 microtiter plate reader. The background signal of CCK-8 alone was subtracted from all samples. Cell proliferation was then expressed as a percentage of absorbance relative to the control of untreated cells (Equation 2). Nonlinear regression analysis was performed using GraphPad Prism.
Next, the potency of each KDC was tested in a cell-proliferation experiment. […] Cells were seeded in a 96-well plate at a density of 2,500 cells per well and grown overnight at 37° C., 5% CO2 in DMEM with 10% FBS and 1% penicillin/streptomycin. Cells were subsequently treated with 100 μL of fresh media, containing varying concentrations of drug, protein, or protein-drug conjugate and incubated for 4 d at 37° C., 5% CO2. Cell proliferation was measured according to the method described in Section 1.3. Error bars represent the standard deviation of experiments performed in triplicate. […] Given that the linker must be cleaved to release free Gemcitabine in order for the payload to become active, the low potency of 5b can be explained by the greater stability of the carbamate group as compared to the other linkers tested.

U87MG cells [2] = test: Competition binding assay with AF488-labeled EETI-2.5F (AF488-1), flow cytometry; details: for IC50: competition with 1 nM AF488-1, 4° C., 3 hours, read-out: IC50 (nM), binding affinity
Protocol: Once the knottin-drug conjugates 5a-d were prepared, their binding affinity to U87MG glioblastoma cells, which are known to have elevated expression of tumor-associated integrins, was tested. […] To measure the relative binding affinities of knottins 1 and 2 and KDCs 5a-d, competition binding assays were performed using AlexaFluor 488-conjugated EETI-2.5F (AF488-1) as previously described (J. W. Kim, et al., J. Am. Chem. Soc. 2015, 137, 6-9). Cells (5×10^4 per sample) were detached with 0.05% Trypsin-EDTA, washed with IBB (25 mM Tris pH 7.4, 150 mM NaCl, 2 mM CaCl2, 1 mM MgCl2, 1 mM MnCl2, and 0.1% bovine serum albumin), and incubated with 1 nM AF488-1 and varying concentrations of competitors in 800 μL of IBB at 4° C. for 3 hours. The cells were washed twice with 800 μL of PBSA (phosphate buffered saline containing 0.1% bovine serum albumin) and the fluorescence of the surface-bound AF488-1 was determined using flow cytometry. The fluorescence was normalized to that of cells treated with AF488-1 alone to obtain the fraction bound. Half-maximal inhibitory concentration (IC50) values were determined by nonlinear regression analysis. Error bars represent the standard deviation of experiments performed in triplicate.

U87MG cells [3] = test: Premature drug release study: cell proliferation (CCK-8) with hENT1 inhibitor 6 co-administered; format: cell-based; details: for Fold Increase in ED50 in U87MG Cells: ED50 with 6 / ED50 without 6, minus 1
Protocol: as §1
The relative extent of premature drug-release in the cases of 5a, 5c, and 5d was next determined in order to identify the linker best-suited for delivering the drug payload intracellularly. An established technique for blocking the cellular uptake of Gemcitabine by using S (4-nitrobenzyl)-6-thioinosine (6) was employed, which is known to inhibit human equilibrative nucleoside transporters, such as hENT1. Because hENT1 is a critical regulator of the cellular internalization of Gemcitabine, it was reasoned that by inhibiting its activity with 6, the cytotoxic effect of any drug payload that was released in the extracellular environment could be diminished. It was anticipated that this would allow the distinction between KDCs that were potent due to the undesirable release of Gemcitabine outside of the cell from those that released Gemcitabine intracellularly (FIG. 6). The extent of premature drug release in the extracellular environment was studied by inhibiting activity of nucleoside transporters (such as hENT1) of U87MG cells through the use of the hENT1 inhibitor S-(4-nitrobenzyl)-6-thioinosine (6). […] In a similar fashion, it was expected that for KDCs which released a significant amount of the drug payload in the extracellular environment, an increase in the concentration of 6 should result in a concomitant increase in ED50 value.
Media used to prepare varying concentrations of drug, protein, or protein-drug conjugate also contained varying concentrations of the hENT1 inhibitor, 6. Additionally, prior to treatment, cell were incubated at 37° C., 5% CO2 with fresh media containing the varying concentrations of 6 for 2 h. Cell proliferation was measured using the Cell Counting Kit-8 by replacing the media in each well with 100 μL of media containing 10% WST-8. After incubation for 1 h at 37° C., absorbance at 450 nm was measured with a Synergy H4 microtiter plate reader. ED50 values were determined by nonlinear regression analysis. Example dose-response curves for 3 (FIG. 7) and 5d (FIG. 8) are provided. Cell proliferation was measured according to the method described in Section 1.3. Error bars represent the standard deviation of experiments performed in triplicate.
These values were normalized as Fold Increase in ED50 (defined in Equation 2) by dividing the ED50 of each drug when 6 was co-administered at concentration=C by the ED50 of that same drug when no 6 was added, then subtracting 1 (thus, a “0-fold increase” would mean no increase, while a “1-fold increase” would mean that the ED50 value had doubled). Fold Increase in ED50 for each drug at each concentration of 6 is provided in Table 5, and these values were used to generate FIG. 9.

U87MG cells [4] = test: Integrin-blocking competition: cell proliferation (CCK-8) after pre-treatment with EETI-2.5F (1); format: cell-based; details: 1 μM 1, 3 h pre-treatment and co-treatment
Protocol: as §1
One possible explanation for the apparent hENT1-independence of 5d is that its route of internalization could be integrin-mediated. The role of integrin-binding in the biological potency and hENT1-independence of 5d was determined. A competition experiment was carried out in which U87MG cells were pre-treated with unconjugated EETI-2.5F (1) in order to block integrins on the cell surface. The role of integrin-binding was studied by measuring the proliferation of U87MG cells that had been pre-treated with EETI-2.5F (1) when exposed to increasing doses of 3 and KDCs 5a, 5c, and 5d. […] Media used to prepare varying concentrations of drug, protein, or protein-drug conjugate also contained 1 μM of 1. Prior to treatment, cells were incubated for 3 h at 37° C., 5% CO2 with fresh media containing 1 μM 1. After this pre-treatment, cells were incubated with varying concentrations of 5a, 5c, or 5d for 24 h and then media was replaced with fresh media and cells were incubated for an additional 48 h. Cell proliferation was measured using the Cell Counting Kit-8 by replacing the media in each well with 100 μL of media containing 10% WST-8. After incubation for 1 h at 37° C., absorbance at 450 nm was measured with a Synergy H4 microtiter plate reader. Cell proliferation was measured according to the method described in Section 1.3. Error bars represent the standard deviation of experiments performed in triplicate.

Row | SMILES | Potency / growth inhibition in U87MG cells (in words) (U87MG cells [1]) | EC50 (U87MG cells [1]) [nM] | IC50 (U87MG cells [2]) [nM] | Effect of hENT1 inhibitor 6 on potency (ED50) (in words) (U87MG cells [3]; U87MG cells, increasing concentrations of 6 up to 10 μM) | Fold Increase in ED50 in U87MG Cells (U87MG cells [3]; [6] = 0 nM) | Fold Increase in ED50 in U87MG Cells (U87MG cells [3]; [6] = 1 nM) | Fold Increase in ED50 in U87MG Cells (U87MG cells [3]; [6] = 10 nM) | Fold Increase in ED50 in U87MG Cells (U87MG cells [3]; [6] = 100 nM) | Fold Increase in ED50 in U87MG Cells (U87MG cells [3]; [6] = 1000 nM) | Fold Increase in ED50 in U87MG Cells (U87MG cells [3]; [6] = 10000 nM) | Effect of integrin blocking by pre-treatment with 1 on potency (in words) (U87MG cells [4]) | Binding affinity to U87MG cells (in words) (U87MG cells [2])
1 | CC(C)C[C@@H]1NC(=O)[C@@H]2CSSC[C@@H](C(=O)NCC(=O)O)NC(=O)[C@H](Cc3ccccc3)NC(=O)CNC(=O)[C@H](CC(N)=O)NC(=O)[C@@H]3CCCN3C(=O)CNC(=O)[C@@H]3CSSC[C@H](NC(=O)[C@H]([C@@H](C)O)NC(=O)[C@H](CC(C)C)NC(=O)[C@@H]4CCCN4C(=O)[C@@H]4CCCN4C(=O)[C@H](CC(N)=O)NC(=O)[C@H](CC(=O)O)NC(=O)CNC(=O)[C@H](CCCNC(=N)N)NC(=O)[C@@H]4CCCN4C(=O)[C@H](CCCNC(=N)N)NC(=O)[C@@H]4CCCN4C(=O)[C@@H](NC(=O)CN)CSSC[C@H](NC(=O)CNC(=O)[C@H](C)NC1=O)C(=O)N[C@@H](C(C)C)C(=O)N3)C(=O)N[C@@H](CCCn1cc(CCCNC(=O)OC[C@H]3O[C@@H](n4ccc(N)nc4=O)C(F)(F)[C@@H]3O)nn1)C(=O)N[C@@H](CCC(N)=O)C(=O)N[C@@H](CC(=O)O)C(=O)N[C@@H](CO)C(=O)N[C@@H](CC(=O)O)C(=O)N2 [5b] | lacked significant potency | > 1000 | 3.3 ± 0.2 |  |  |  |  |  |  |  |  | 
2 | CC(C)C[C@@H]1NC(=O)[C@@H]2CSSC[C@@H](C(=O)NCC(=O)O)NC(=O)[C@H](Cc3ccccc3)NC(=O)CNC(=O)[C@H](CC(N)=O)NC(=O)[C@@H]3CCCN3C(=O)CNC(=O)[C@@H]3CSSC[C@H](NC(=O)[C@H]([C@@H](C)O)NC(=O)[C@H](CC(C)C)NC(=O)[C@@H]4CCCN4C(=O)[C@@H]4CCCN4C(=O)[C@H](CC(N)=O)NC(=O)[C@H](CC(=O)O)NC(=O)CNC(=O)[C@H](CCCNC(=N)N)NC(=O)[C@@H]4CCCN4C(=O)[C@H](CCCNC(=N)N)NC(=O)[C@@H]4CCCN4C(=O)[C@@H](NC(=O)CN)CSSC[C@H](NC(=O)CNC(=O)[C@H](C)NC1=O)C(=O)N[C@@H](C(C)C)C(=O)N3)C(=O)N[C@@H](CCCn1cc(CCC(=O)Nc3ccn([C@@H]4O[C@H](CO)[C@@H](O)C4(F)F)c(=O)n3)nn1)C(=O)N[C@@H](CCC(N)=O)C(=O)N[C@@H](CC(=O)O)C(=O)N[C@@H](CO)C(=O)N[C@@H](CC(=O)O)C(=O)N2 [5c] | low-nanomolar ED50 values | 8.9 ± 1.2 | 2.8 ± 0.2 | much less sensitive | 0 | 0.5 ± 0.2 | 1.0 ± 0.2 | 7.8 ± 4.8 | 18.0 ± 5.2 | 31.1 ± 5.1 | did not diminish the potency | 
3 | CC(C)C[C@@H]1NC(=O)[C@@H]2CSSC[C@@H](C(=O)NCC(=O)O)NC(=O)[C@H](Cc3ccccc3)NC(=O)CNC(=O)[C@H](CC(N)=O)NC(=O)[C@@H]3CCCN3C(=O)CNC(=O)[C@@H]3CSSC[C@H](NC(=O)[C@H]([C@@H](C)O)NC(=O)[C@H](CC(C)C)NC(=O)[C@@H]4CCCN4C(=O)[C@@H]4CCCN4C(=O)[C@H](CC(N)=O)NC(=O)[C@H](CC(=O)O)NC(=O)CNC(=O)[C@H](CCCNC(=N)N)NC(=O)[C@@H]4CCCN4C(=O)[C@H](CCCNC(=N)N)NC(=O)[C@@H]4CCCN4C(=O)[C@@H](NC(=O)CN)CSSC[C@H](NC(=O)CNC(=O)[C@H](C)NC1=O)C(=O)N[C@@H](C(C)C)C(=O)N3)C(=O)N[C@@H](CCCN=[N+]=[N-])C(=O)N[C@@H](CCC(N)=O)C(=O)N[C@@H](CC(=O)O)C(=O)N[C@@H](CO)C(=O)N[C@@H](CC(=O)O)C(=O)N2 [compound 2] (H-GCPRPRGDNPPLTC[Orn(N3)]QDSDCLAGCVCGPNGFCG-OH; disulfide 2-24, 14-26, 20-32; N-terminus and C-terminus assumed) | did not show significant growth-inhibition activity | > 1000 | 1.1 ± 1.8 |  |  |  |  |  |  |  |  | low-nanomolar binding affinity
